Each structure is given as a SMILES string.

The first experiment relates to osteoclast differentiation. Nature of the experiment: Inhibitory effects on osteoclast differentiation (co-culture of bone marrow cells with osteoblast, TRAP staining). Type of experiment: cell-based, mice. Particulars: Mus musculus, Osteoclast, 168 h, read-out: % inhibitory activity on osteoclastogenesis. Here is the method:
The effect of benzamidine derivatives of the present invention on osteoclast proliferation and differentiation process was evaluated via co-culture with osteoblast.
Tibia and Femora were aseptically ectomized from male ddY mice of 6-8 weeks to harvest bone marrow cells by using a syringe (21G, Korea Green Cross).
The bone marrow cells were suspended in 5 mL α-MEM medium (Gibco BRL Co.) containing sodium bicarbonate (2.0 g/L), streptomycin (100 mg/L) and penicillin ([…]). The harvested cells were centrifuged at 600×g for 5 mins to collect the whole quantity. To remove the red blood cells within bone marrow cells, 3 mL of Tris HCl (0.83% NH4Cl, pH7.5) was added and well mixed. After centrifuging above cells, the numbers of bone marrow cells were counted and then, the bone marrow cells were immediately used for co-culture system with osteoblast.
The calvaria were aseptically ectomized from neonate ICR mice of 1˜2 days, washed with PBS solution and incubated with a mixture of enzyme solution (0.2% collagenase and 0.1% dispase) at 37° C. gentle shaker. This procedure was sequentially repeated (10, 10, 10, 20, 20 and 20 mins), and then the calvaria cells having the characteristics of osteoblast mostly released from III-VI digestion groups were collected and washed with the medium (serum-free α-MEM). The washed cells were cultivated in α-MEM medium containing 10% FBS for 2˜3 days. After subculturing, these cells were used for this experiment, and diluted to reach the concentration of 1×10^6 cell/mL for storage at −70° C.
Benzamidine derivatives of the present invention were dissolved in a sterile distilled water or ethanol to make desired concentrations following dilution. The final volume of specimen added to the medium was determined at the ratio of 1:1000.
Bone marrow cells prepared, in the above and osteoblast from calvaria were co-cultured for osteoclast differentiation. Both bone marrow cells (25,000 cells/cm^2) and osteoblast (10,000 cells/cm^2) were plated on a 96 well plate in α-MEM medium containing FBS with specimen, and then cultured with test materials for 7 days. Differentiation factors, such as dexamethasone (10^−7M) and vitamin D3 (10^−8M), were also continuously added to the medium from the first day of cultivation. The medium was changed with fresh media containing a mixture of specimens and differentiation factors every 2˜3 day.
TRAP was used as a marker to measure osteoclast in consideration of its characteristics showing a positive reaction to TRAP staining solution. TRAP staining solution was prepared in a manner that 5 mg of naphtol AS-MS phosphate (sigma N-4875), a substrate and 25 mg of coloring agent (Fast Red Violet LB salt) were dissolved in N,N-dimethylformamide (about 0.5 mL), 0.1N NaHCO3 buffer solution (50 mL) containing 50 mM tartaric acid was added, and the reaction mixture was stored at refrigerator prior to use.
After culturing the cells for 7 days, the medium was removed from the wells, the cells were once washed with PBS solution and fixed to PBS containing 10% formalin for 2˜5 mins. The cells were fixed again in a mixed solution of ethanol and acetone (1/1) for about 1 min, and dried off. The cells were further treated by TRAP staining solution for 15 mins and washed with PBS. The experimental results were measured by counting the number of osteoclasts with 3 or more nuclei showing TRAP-positive reaction under a microscopic examination. Each of tests was confirmed over three times for gaining more reliable data.
As shown in the following table 7, the inhibitory effect of each experimental group on the differentiation of osteoclast versus controls was expressed by inhibitory percentage value.
As for `CCCCCc1nc(-c2ccc(OCCCCCOc3ccc(C(=N)NO)cc3)cc2)c(C(C)C)s1` [Example 28, N-hydroxy-4-(5-[4-(5-isopropyl-2-pentyl-1,3-thiazol-4-yl)phenoxy]pentoxy)-benzamidine], the inhibition at 1 µM is 29.6%.
As to `CCCCCc1nc(-c2ccc(OCCCCCOc3ccc(C(=N)NO)cc3)cc2)c(CCCC)s1` [Example 36, N-hydroxy-4-(5-[4-(5-butyl-2-pentyl-1,3-thiazol-4-yl)phenoxy]pentoxy)-benzamidine], the inhibition at 1 µM came out at 46.4%.

Staying with this experiment, now noted: Mus musculus, Osteoclast, 168 h; 1 μm; co-culture of bone marrow cells and osteoblast, 7 days, TRAP-positive osteoclasts versus controls; read-out: % inhibitory activity on osteoclastogenesis.
On to `Cc1sc(C(C)C)nc1-c1ccc(OCCCCCOc2ccc(C(=N)NO)cc2)cc1` [Example 1, N-hydroxy-4-(5-[4-(2-isopropyl-5-methyl-1,3-thiazol-4-yl)phenoxy]pentoxy)-benzamidine], for which the inhibition at 1 µM came to 87%.
For the compound `Cc1sc(C(C)C)nc1-c1ccc(OCCCCCOc2ccc(C(=N)N)cc2)cc1` [Example 2, 4-(5-[4-(2-isopropyl-5-methyl-1,3-thiazol-4-yl)phenoxy]pentoxy)-benzamidine], the inhibition at 1 µM came to 78.4%.
As to `CCc1nc(-c2ccc(OCCCCCOc3ccc(C(=N)NO)cc3)cc2)cs1` [Example 4, N-hydroxy-4-(5-[4-(2-ethyl-1,3-thiazol-4-yl)phenoxy]pentoxy)-benzamidine], the inhibition at 1 µM amounted to 81.1%.
Same read-out and setting: as for `CCc1sc(C)nc1-c1ccc(OCCCCCOc2ccc(C(=N)NO)cc2)cc1` [Example 17, N-hydroxy-4-(5-[4-(5-ethyl-2-methyl-1,3-thiazol-4-yl)phenoxy]pentoxy)-benzamidine], the figure is 59.1%.
As for `CCc1sc(C(C)C)nc1-c1ccc(OCCCCCOc2ccc(C(=N)NO)cc2)cc1` [Example 19, N-hydroxy-4-(5-[4-(5-ethyl-2-isopropyl-1,3-thiazol-4-yl)phenoxy]pentoxy)-benzamidine], the inhibition at 1 µM turned out to be 42.6%.
With `CCc1nc(-c2ccc(OCCCCCOc3ccc(C(=N)NO)cc3)cc2)c(C(C)C)s1` [Example 24, N-hydroxy-4-(5-[4-(2-ethyl-5-isopropyl-1,3-thiazol-4-yl)phenoxy]pentoxy)-benzamidine], the inhibition at 1 µM was found to be 57.8%.
As for `CC(C)c1nc(-c2ccc(OCCCCCOc3ccc(C(=N)NO)cc3)cc2)c(C(C)C)s1` [Example 25, N-hydroxy-4-(5-[4-(2,5-diisopropyl-1,3-thiazol-4-yl)phenoxy]pentoxy)-benzamidine], the inhibition at 1 µM stood at 26.5%.
The same measure, in the same setting: the value for `CC(C)c1sc(-c2ccccc2)nc1-c1ccc(OCCCCCOc2ccc(C(=N)NO)cc2)cc1` [Example 26, N-hydroxy-4-(5-[4-(5-isopropyl-2-phenyl-1,3-thiazol-4-yl)phenoxy]pentoxy)-benzamidine] was 42.9%.
In the case of `CC(C)c1sc(-c2cccnc2)nc1-c1ccc(OCCCCCOc2ccc(C(=N)NO)cc2)cc1` [Example 27, N-hydroxy-4-(5-[4-(5-isopropyl-2-pyridin-3-yl-1,3-thiazol-4-yl)phenoxy]pentoxy)-benzamidine], the inhibition at 1 µM was 56.5%.
For the compound `CCCc1sc(C)nc1-c1ccc(OCCCCCOc2ccc(C(=N)NO)cc2)cc1` [Example 29, N-hydroxy-4-(5-[4-(2-methyl-5-propyl-1,3-thiazol-4-yl)phenoxy]pentoxy)-benzamidine], the inhibition at 1 µM was determined as 96.3%.
Regarding `CCCCc1sc(-c2ccccc2)nc1-c1ccc(OCCCCCOc2ccc(C(=N)NO)cc2)cc1` [Example 33, N-hydroxy-4-(5-[4-(5-butyl-2-phenyl-1,3-thiazol-4-yl)phenoxy]pentoxy)-benzamidine], the inhibition at 1 µM was determined as 49.5%.
The same measure, in the same setting: as for `Cc1nc(-c2ccc(OCCCCCOc3ccc(C(=N)NO)cc3)cc2)c(Cc2ccccc2)s1` [Example 38, N-hydroxy-4-(5-[4-(5-benzyl-2-methyl-1,3-thiazol-4-yl)phenoxy]pentoxy)-benzamidine], the figure is 56.8%; as for `Cc1nc(-c2ccc(OCCCCCOc3ccc(C(=N)NO)cc3)cc2)c(CCCl)s1` [Example 42, N-hydroxy-4-(5-[4-(5-(2-chloro-ethyl)-2-methyl-1,3-thiazol-4-yl)phenoxy]pentoxy)-benzamidine], 90.9%.

These data come from patent US8178688B2, “Benzamidine derivatives, process for the preparation thereof and pharmaceutical composition comprising the same” (Dong Wha Pharmaceutical Co., Ltd., priority 2004, dated 2012).
